From patent publication US20240132534A1, “OLIGONUCLEOTIDE PRIMER WITH AN ACYCLIC NUCLEOSIDE STRUCTURE FOR INITIAL CAPPING” (JIANGSU SYNTHGENE BIOTECHNOLOGY CO., LTD., priority 2022, published 2024)

Assays:
T7 transcription = T7 transcription (Escherichia phage T7, UniProt P00573); details: cited from earlier work
RIG-I = biological target: T1, RIG-I (Homo sapiens, UniProt O95786); experiment: Binding ability of mRNA to RIG-I (RNA co-immunoprecipitation, RT-qPCR) in transfected 293T cells; type: cell-based; details: eGFP mRNA made with the cap analog, 24 h after transfection
T1 construct: endogenous in cells; host or cells: 293T cells
T1 sequence (O95786 1-925): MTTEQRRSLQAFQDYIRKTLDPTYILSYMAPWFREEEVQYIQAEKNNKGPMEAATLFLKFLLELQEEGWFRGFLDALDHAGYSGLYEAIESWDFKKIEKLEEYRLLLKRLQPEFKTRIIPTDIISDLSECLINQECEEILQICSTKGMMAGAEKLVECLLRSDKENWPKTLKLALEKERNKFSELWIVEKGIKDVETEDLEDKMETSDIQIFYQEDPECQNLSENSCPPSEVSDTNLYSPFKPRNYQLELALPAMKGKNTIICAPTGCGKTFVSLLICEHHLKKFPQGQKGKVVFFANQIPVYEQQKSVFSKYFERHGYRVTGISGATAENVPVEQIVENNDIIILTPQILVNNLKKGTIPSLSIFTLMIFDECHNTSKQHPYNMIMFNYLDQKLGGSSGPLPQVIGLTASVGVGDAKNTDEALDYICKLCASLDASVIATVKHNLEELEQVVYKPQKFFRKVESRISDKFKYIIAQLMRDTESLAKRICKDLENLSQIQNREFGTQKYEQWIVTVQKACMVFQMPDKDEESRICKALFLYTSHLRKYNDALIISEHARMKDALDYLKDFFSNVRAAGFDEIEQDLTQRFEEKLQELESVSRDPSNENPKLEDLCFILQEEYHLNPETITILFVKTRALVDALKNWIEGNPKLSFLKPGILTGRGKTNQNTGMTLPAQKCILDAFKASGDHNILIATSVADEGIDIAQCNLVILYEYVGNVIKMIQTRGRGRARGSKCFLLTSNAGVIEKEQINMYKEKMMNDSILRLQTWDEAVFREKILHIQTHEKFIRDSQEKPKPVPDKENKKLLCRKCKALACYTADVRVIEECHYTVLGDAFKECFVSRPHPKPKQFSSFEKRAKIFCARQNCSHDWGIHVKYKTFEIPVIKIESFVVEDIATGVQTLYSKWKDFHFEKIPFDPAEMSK
Source text: Test Example 2: Determination of the binding ability of mRNA to RIG I
RIG-I mainly includes two repeated caspase activation and recruitment domains (CARD) at the N-terminus, a helicase structure in the middle and a RNA domain at the C-terminus. The overexpression of the N-terminal CARD domain of RIG-I can promote cells to secrete type I interferon (IFN) even in the absence of viral infection. Therefore, this domain is mainly responsible for transmitting signals downstream. RIG-I can recognize exogenous RNA, mediate the production of cytokines and chemokines, and recruit innate immune cells to trigger immune responses. mRNA with high immunogenicity is easily recognized and combined by RIG. Thus, mRNA with strong binding ability to RIG-1 has high immunogenicity.
In this study, 293T cells were transfected with the eGFP mRNAs prepared by in vitro transcription initiated by the oligonucleotide primers with an acyclic nucleoside structure for initial capping in Examples 1-4, 6, 7, and 11 and the cap analogs in Comparative Examples 1-2, and collected 24 hours later. The intracellular protein RIG I and RNA bound thereto were co-immunoprecipitated by the RNA co-immunoprecipitation method. Finally, reverse transcription and real-time quantitative PCR were performed on these mRNAs.
The specific cell culture conditions were the same as above. Cells were collected 24 hours after transfection. First, a fixing solution was added for incubation. After 10 min, glycine solution of an appropriate concentration was added to terminate the reaction, and cells were collected. The collected cells were lysed using the lysis solution, centrifuged at 12,000 rpm and 4° C. for 10 min. The supernatant was collected and incubated with an appropriate amount of RIG-I or IgG antibody on a shaker at 4° C. overnight. Then 20 μl of Protein A/G magnetic beads were added, incubated at 4° C. for 4 h, and washed on a magnetic stand. After washing was completed, RNA was extracted and used for subsequent RT-qPCR to determine the expression results.

T7 RNA polymerase [1] = biological target: T2, T7 RNA polymerase (Escherichia phage T7, UniProt P00573); experiment: IVT capping rate of mRNA by LC-MS; type: biochemical; details: for Capping rate: LC-MS after RNase H cleavage; for Increased capping rate relative to Comparative Example 1: vs capping rate 93.5% of Comparative Example 1
Experimental: (§1) Test Example 1: Determination of in vitro transcription yield and capping efficiency of mRNA
(§2) In vitro synthesis of mRNA was performed using the oligonucleotide primer with an acyclic nucleoside structure for initial capping by the co-transcriptional capping method. First, the plasmid was digested with NotI overnight at […]. DNA template was extracted to synthesize mRNA by in vitro transcription. The oligonucleotide primers with an acyclic nucleoside structure for initial capping in Examples 1-4, 6, 7, and 11 and the capping analogs in Comparative Examples 1-2 were used as cap structures respectively.
Liquid chromatography mass spectrometry (LC-MS) was used to determine the IVT capping rate of mRNA with different initial cap analogs. First, it is necessary to design a labeled DNA probe that matches the starting base of the transcript product mRNA, and usually the label is biotin. The streptavidin-labeled magnetic beads were washed, and incubated with the synthesized DNA probe, mRNA and 10×RNase H reaction buffer at room temperature for 30 min. The mixture was mixed slowly while incubating, then added with 20 μl of RNase. H (5U/μl), incubated at 37° C. for 3 h, and mixed thoroughly every half hour. After the incubation was completed, the magnetic beads were washed and added with 100 μL of 75% methanol heated to 80° C. The mixture was heated to 80° C. on a hot plate and kept for 3 min, and then placed on a magnetic stand. The supernatant was collected and dried at room temperature for 45 min to 10 μl using an evaporative centrifuge. The sample was then resuspended in 50 μl of 100 μM EDTA/1% MeOH, which was ready for LC-MS analysis to determine RNA capping during the transcription reaction. Since there was a significant difference in molecular weight between capped and uncapped bases, the capping rate of mRNA transcription initiated by different cap analogs can be determined through the difference in molecular mass.

T7 RNA polymerase [2] = biological target: T2, T7 RNA polymerase; experiment: In vitro transcription yield of mRNA by co-transcriptional capping; type: biochemical; details: for Yield: mRNA from 20 μl IVT, 1 μg template, 37° C. 2 h, Nanodrop One; for Increased yield relative to Comparative Example 1: mRNA IVT yield vs 50 μg of Comparative Example 1
Experimental: as §1, §2
Note: During the experiment, the volume of materials required for the system was first calculated, and then the sample was added. The system was firstly added with sterile enzyme-free water, then added with 10X buffer, NTPs, and cap structure subsequently, mixed, centrifuged gently, then added with nuclease inhibitor, inorganic pyrophosphatase, T7 RNA polymerase, and linearized DNA template, mixed thoroughly, centrifuged gently, and incubated at 37° C. After 2 h, the system was added with 1U of DNase I and incubated at 37° C. for another 30 min to remove the DNA template. Then RNA was purified, usually by the magnetic bead purification method. The purified mRNA was dissolved in sterile enzyme-free water, and then quantitatively measured using Nanodrop One.

T2 sequence (P00573 whole entry): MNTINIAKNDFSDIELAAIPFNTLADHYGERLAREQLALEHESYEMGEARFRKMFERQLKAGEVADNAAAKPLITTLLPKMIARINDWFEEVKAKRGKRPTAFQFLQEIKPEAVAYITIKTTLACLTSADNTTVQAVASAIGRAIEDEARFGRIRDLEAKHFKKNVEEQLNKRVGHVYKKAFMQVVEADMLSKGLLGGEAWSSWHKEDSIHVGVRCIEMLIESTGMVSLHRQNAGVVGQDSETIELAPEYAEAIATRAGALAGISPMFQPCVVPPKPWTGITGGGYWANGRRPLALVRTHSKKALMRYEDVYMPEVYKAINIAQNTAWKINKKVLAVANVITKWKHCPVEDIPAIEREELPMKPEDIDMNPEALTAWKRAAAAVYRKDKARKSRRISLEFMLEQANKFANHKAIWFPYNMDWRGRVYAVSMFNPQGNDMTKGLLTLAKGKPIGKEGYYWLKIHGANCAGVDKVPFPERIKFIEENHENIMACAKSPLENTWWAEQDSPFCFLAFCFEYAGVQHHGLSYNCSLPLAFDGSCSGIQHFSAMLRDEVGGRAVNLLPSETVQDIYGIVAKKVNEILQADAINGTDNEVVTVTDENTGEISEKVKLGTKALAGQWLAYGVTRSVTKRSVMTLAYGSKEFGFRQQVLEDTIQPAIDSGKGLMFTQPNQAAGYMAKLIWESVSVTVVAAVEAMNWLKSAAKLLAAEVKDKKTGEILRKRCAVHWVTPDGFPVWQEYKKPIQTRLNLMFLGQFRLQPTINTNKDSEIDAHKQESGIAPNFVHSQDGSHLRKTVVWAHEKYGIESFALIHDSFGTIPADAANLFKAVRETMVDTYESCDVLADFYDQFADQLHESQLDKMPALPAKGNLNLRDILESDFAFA
Sequence of T7 transcription (P00573 whole entry): as above

Compound	Capped RNA prepared per milliliter of transcription reaction system (T7 transcription; per milliliter of transcription reaction) [mg]	Immunogenicity of transcription products (T7 transcription; vs ARCA)	Relative binding ability to RIG-I (RIG-I)	Capping rate (T7 RNA polymerase [1]) [%]	Yield (T7 RNA polymerase [2]) [µg]	Increased capping rate relative to Comparative Example 1 (T7 RNA polymerase [1]) [%]	Increased yield relative to Comparative Example 1 (T7 RNA polymerase [2]) [%]
COC1C(OP(=O)(O)OC[C@H]2O[C@@H](n3cnc4c(=O)[nH]c(N)nc43)C(O)C2O)[C@@H](COP(=O)(O)OP(=O)(O)OP(=O)([O-])OC[C@H]2O[C@@H](n3c[n+](C)c4c(=O)[nH]c(N)nc43)C(O)C2O)O[C@H]1n1cnc2c(N)ncnc21 (stereo in doubt) [Comparative Example 1, ^m7GpppA2′OMepG, reference compound]	4	lower than that of ARCA	3.1±0.51	93.5	50	–	–
COC[C@@H](COP(=O)(O)OP(=O)([O-])OP(=O)(O)OC[C@H]1O[C@@H](n2cnc3c(N)ncnc32)C(OC)C1OP(=O)(O)OC[C@H]1O[C@@H](n2cnc3c(=O)[nH]c(N)nc32)C(O)C1O)O[C@H](CO)n1c[n+](C)c2c(=O)[nH]c(N)nc21 (stereo in doubt) [Example 11]	–	–	1.5±0.25	96.8	71	3.3	42
COC1C(OP(=O)(O)OC[C@H](CO)O[C@H](CO)n2cnc3c(=O)[nH]c(N)nc32)[C@@H](COP(=O)(O)OP(=O)(O)OP(=O)([O-])OC[C@H]2O[C@@H](n3c[n+](C)c4c(=O)[nH]c(N)nc43)C(O)C2O)O[C@H]1n1cnc2c(N)ncnc21 (some centres unmarked) [Comparative Example 2, reference compound]	–	–	4.0 ± 0.31	90.1	41	–	–
CO[C@H]1C(OP(=O)(O)OC[C@H]2O[C@@H](n3cnc4c(=O)[nH]c(N)nc43)[C@@H](O)C2O)[C@@H](COP(=O)(O)OP(=O)([O-])OP(=O)(O)OC[C@H](CO)O[C@H](CO)n2c[n+](C)c3c(=O)[nH]c(N)nc32)O[C@H]1n1cnc2c(N)ncnc21 (some centres unmarked) [Example 1]	–	–	–	99.3	72	5.8	44
CO[C@H]1C(OP(=O)(O)OC[C@H](CO)O[C@H](CO)n2cnc3c(=O)[nH]c(N)nc32)[C@@H](COP(=O)(O)OP(=O)([O-])OP(=O)(O)OC[C@H](CO)O[C@H](CO)n2c[n+](C)c3c(=O)[nH]c(N)nc32)O[C@H]1n1cnc2c(N)ncnc21 (some centres unmarked) [Example 2]	–	–	2.4 ± 0.34	96.5	58	3	–
COC[C@@H](O[C@@H](COP(=O)(O)OC[C@H](CO)O[C@H](CO)n1cnc2c(=O)[nH]c(N)nc21)COP(=O)(O)OP(=O)([O-])OP(=O)(O)OC[C@H](CO)O[C@H](CO)n1c[n+](C)c2c(=O)[nH]c(N)nc21)n1cnc2c(N)ncnc21 [Example 4]	–	–	2.8 ± 0.62	93.3	45	–	–
COCCOC1C(OP(=O)(O)OC[C@H]2O[C@@H](n3cnc4c(=O)[nH]c(N)nc43)C(O)C2O)[C@@H](COP(=O)(O)OP(=O)(O)OP(=O)([O-])OC[C@H](CO)O[C@H](CO)n2c[n+](C)c3c(=O)[nH]c(N)nc32)O[C@H]1n1cnc2c(N)ncnc21 (some centres unmarked) [Example 6]	–	–	1.4±0.32	95.2	44	–	–
C[n+]1cn([C@@H](CO)O[C@@H](CO)COP(=O)([O-])OP(=O)(O)OP(=O)(O)OC[C@]23COC(C2OP(=O)(O)OC[C@H]2O[C@@H](n4cnc5c(=O)[nH]c(N)nc54)C(O)C2O)[C@H](n2cnc4c(N)ncnc42)O3)c2nc(N)[nH]c(=O)c21 (some centres unmarked) [Example 7]	–	–	2.1 ± 0.21	97.6	68	4.1	36
